# Source: ChEMBL document CHEMBL1201862, “PubChem BioAssay data set” (2004)
# Calls of active or inactive are those of the source.
# Columns and labels:
# [1] = target: Heat shock protein HSP 90-alpha (Homo sapiens, UniProt P07900); format: functional, organism-based
# [2] = target: T1, Heat shock factor protein 1 (Mus musculus, UniProt P38532); test: HSF1 potentiators in luciferase reporter cells, confirmation, cell-based, NIH3T3, luminescence, dose retest (AID 435004); format: functional;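 note: stress induced by proteasome inhibitor MG132 added 30 min after compound; luciferase reporter driven by HSF1 response element in NIH3T3 cells; actives raise luminescence as potentiators of the MG132 stress response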
# T1 sequence (P38532 whole entry): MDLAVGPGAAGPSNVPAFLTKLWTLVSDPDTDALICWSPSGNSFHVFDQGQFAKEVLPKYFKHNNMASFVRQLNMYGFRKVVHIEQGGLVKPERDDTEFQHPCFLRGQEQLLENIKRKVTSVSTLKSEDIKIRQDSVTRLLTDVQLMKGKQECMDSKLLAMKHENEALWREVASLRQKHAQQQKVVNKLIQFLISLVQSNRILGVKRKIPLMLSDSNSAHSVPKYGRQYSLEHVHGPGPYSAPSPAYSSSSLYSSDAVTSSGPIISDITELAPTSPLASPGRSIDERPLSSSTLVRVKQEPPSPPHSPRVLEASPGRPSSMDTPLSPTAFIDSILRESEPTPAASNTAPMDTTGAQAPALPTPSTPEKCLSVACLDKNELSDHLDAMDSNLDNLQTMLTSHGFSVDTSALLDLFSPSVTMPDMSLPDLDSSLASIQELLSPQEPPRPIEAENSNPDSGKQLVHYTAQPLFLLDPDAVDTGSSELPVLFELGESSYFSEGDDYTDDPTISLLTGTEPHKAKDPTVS
# Large T antigen = Large T antigen (Simian virus 40, UniProt P03070); format: functional, Betapolyomavirus macacae;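 note: Confirmatory-stage PubChem screen for compounds that inhibit SV40 T antigen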
# Chain of Large T antigen (P03070 whole entry): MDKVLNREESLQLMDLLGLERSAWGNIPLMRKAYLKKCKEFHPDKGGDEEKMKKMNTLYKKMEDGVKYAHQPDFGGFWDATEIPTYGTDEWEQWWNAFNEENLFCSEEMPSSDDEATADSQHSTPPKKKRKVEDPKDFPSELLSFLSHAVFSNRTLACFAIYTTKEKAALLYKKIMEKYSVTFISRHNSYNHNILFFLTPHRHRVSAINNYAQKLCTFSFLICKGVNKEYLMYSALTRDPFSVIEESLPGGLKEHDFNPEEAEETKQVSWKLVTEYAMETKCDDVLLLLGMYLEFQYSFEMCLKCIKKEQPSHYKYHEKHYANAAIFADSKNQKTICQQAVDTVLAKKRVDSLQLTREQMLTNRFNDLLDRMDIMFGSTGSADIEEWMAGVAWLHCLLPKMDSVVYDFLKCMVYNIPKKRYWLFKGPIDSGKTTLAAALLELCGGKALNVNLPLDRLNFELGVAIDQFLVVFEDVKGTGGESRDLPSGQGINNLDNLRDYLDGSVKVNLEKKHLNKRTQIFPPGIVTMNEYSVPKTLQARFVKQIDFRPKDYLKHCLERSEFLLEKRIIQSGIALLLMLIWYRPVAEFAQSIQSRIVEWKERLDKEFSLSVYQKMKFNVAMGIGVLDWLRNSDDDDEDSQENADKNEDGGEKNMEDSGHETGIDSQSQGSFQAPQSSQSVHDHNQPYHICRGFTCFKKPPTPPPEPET
# [3] = HeLa cell cytotoxicity, dose response, cytotoxicity control for MgcRacGAP inhibitor project (AID 624300); format: functional
# [4] = target: T2, Rac GTPase-activating protein 1 (Homo sapiens, UniProt Q9H0H5); test: MgcRacGAP GTPase-activating activity inhibitors, confirmation, biochemical, ADP Hunter fluorescence, primary and confirmatory (AID 624330); format: functional
# T2 sequence (Q9H0H5 whole entry): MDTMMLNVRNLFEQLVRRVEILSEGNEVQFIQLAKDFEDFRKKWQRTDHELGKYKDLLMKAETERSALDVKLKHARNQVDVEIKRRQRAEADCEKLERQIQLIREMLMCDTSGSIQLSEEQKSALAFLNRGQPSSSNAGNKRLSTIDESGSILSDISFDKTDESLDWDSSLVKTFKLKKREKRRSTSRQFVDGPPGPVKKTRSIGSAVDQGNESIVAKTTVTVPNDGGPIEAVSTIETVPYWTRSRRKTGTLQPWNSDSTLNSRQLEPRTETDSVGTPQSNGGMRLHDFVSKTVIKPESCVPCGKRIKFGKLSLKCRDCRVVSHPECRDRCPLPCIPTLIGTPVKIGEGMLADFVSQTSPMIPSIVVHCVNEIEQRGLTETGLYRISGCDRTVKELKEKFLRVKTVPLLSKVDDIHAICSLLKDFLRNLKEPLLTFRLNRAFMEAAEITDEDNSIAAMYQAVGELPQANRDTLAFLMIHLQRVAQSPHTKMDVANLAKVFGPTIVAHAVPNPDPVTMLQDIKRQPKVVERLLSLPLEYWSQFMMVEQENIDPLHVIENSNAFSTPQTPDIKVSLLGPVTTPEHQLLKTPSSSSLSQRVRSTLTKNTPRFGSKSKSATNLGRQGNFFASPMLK
# [5] = target: FAD-linked sulfhydryl oxidase ALR (Homo sapiens, UniProt P55789); test: inhibitors of human ALR sulfhydryl oxidase, dose response, biochemical, H2O2 detection, luminescence, cherry-pick (AID 493248)
# Chain of FAD-linked sulfhydryl oxidase ALR (P55789 whole entry): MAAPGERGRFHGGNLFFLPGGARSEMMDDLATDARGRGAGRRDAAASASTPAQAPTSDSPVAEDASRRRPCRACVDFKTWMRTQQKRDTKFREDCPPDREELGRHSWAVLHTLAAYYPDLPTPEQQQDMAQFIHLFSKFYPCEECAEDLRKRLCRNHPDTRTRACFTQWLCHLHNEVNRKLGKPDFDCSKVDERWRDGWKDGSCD
# [6] = target: T3, Ubiquitin-conjugating enzyme E2 N (Homo sapiens, UniProt P61088); format: functional;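 note: Dose-response confirmation in a TR-FRET assay detecting UBC13-driven polyubiquitin chain formation, inhibition measured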
# T3 sequence (P61088 whole entry): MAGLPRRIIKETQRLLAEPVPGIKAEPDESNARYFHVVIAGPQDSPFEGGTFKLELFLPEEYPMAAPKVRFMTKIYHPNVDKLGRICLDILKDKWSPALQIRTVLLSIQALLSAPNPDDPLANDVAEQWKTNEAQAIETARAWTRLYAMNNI
# [7] = Luminescence Cell-Based Dose Retest to Confirm Inhibitors of Cancer Stem Cells. [Related pubchem assays (depositor defined):AID2717, AID2721]; format: functional; conditions: Homo sapiens
# Protein RecA = target: T4, Protein RecA (Mycobacterium tuberculosis, UniProt P9WHJ3); test: Fluorescence Cell-Free Homogeneous Dose Retest to Identify Inhibitors of RecA-Intein Splicing Activity. [Related pubchem assays (depositor defined):AID2097, AID2223, AID489010, AID492950]; format: functional
# T4 sequence (P9WHJ3 whole entry): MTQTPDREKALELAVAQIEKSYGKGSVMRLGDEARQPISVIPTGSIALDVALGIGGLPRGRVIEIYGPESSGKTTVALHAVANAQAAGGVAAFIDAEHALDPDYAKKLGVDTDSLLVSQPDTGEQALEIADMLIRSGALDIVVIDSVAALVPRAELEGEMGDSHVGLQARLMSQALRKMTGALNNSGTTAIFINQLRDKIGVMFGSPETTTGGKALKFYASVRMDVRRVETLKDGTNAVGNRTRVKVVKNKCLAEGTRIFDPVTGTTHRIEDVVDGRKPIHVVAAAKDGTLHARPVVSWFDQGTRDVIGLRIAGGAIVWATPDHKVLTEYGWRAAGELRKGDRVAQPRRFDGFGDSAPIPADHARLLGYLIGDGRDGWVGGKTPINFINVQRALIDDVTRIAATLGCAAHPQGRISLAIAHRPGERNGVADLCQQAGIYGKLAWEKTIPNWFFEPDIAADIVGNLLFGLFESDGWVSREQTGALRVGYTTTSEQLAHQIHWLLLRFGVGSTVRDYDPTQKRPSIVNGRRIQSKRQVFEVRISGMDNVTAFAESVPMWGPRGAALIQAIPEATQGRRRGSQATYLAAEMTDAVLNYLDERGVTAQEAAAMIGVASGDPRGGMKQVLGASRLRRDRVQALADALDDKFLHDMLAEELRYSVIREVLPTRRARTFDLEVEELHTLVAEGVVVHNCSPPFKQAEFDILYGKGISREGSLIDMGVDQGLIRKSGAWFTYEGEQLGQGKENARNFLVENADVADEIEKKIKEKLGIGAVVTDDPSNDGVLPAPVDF
# Fatty acid synthase [8] = target: T5, Fatty acid synthase (Homo sapiens, UniProt P49327); test: FAS thioesterase domain inhibitors, dose response, biochemical, endpoint fluorescence intensity, uHTS hits (AID 624327); format: functional;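 note: fluorescence from hydrolysis of an O-methyl fluorescein acyl ester substrate by the enzyme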
# T5 sequence (P49327 whole entry, the tested form may be a part): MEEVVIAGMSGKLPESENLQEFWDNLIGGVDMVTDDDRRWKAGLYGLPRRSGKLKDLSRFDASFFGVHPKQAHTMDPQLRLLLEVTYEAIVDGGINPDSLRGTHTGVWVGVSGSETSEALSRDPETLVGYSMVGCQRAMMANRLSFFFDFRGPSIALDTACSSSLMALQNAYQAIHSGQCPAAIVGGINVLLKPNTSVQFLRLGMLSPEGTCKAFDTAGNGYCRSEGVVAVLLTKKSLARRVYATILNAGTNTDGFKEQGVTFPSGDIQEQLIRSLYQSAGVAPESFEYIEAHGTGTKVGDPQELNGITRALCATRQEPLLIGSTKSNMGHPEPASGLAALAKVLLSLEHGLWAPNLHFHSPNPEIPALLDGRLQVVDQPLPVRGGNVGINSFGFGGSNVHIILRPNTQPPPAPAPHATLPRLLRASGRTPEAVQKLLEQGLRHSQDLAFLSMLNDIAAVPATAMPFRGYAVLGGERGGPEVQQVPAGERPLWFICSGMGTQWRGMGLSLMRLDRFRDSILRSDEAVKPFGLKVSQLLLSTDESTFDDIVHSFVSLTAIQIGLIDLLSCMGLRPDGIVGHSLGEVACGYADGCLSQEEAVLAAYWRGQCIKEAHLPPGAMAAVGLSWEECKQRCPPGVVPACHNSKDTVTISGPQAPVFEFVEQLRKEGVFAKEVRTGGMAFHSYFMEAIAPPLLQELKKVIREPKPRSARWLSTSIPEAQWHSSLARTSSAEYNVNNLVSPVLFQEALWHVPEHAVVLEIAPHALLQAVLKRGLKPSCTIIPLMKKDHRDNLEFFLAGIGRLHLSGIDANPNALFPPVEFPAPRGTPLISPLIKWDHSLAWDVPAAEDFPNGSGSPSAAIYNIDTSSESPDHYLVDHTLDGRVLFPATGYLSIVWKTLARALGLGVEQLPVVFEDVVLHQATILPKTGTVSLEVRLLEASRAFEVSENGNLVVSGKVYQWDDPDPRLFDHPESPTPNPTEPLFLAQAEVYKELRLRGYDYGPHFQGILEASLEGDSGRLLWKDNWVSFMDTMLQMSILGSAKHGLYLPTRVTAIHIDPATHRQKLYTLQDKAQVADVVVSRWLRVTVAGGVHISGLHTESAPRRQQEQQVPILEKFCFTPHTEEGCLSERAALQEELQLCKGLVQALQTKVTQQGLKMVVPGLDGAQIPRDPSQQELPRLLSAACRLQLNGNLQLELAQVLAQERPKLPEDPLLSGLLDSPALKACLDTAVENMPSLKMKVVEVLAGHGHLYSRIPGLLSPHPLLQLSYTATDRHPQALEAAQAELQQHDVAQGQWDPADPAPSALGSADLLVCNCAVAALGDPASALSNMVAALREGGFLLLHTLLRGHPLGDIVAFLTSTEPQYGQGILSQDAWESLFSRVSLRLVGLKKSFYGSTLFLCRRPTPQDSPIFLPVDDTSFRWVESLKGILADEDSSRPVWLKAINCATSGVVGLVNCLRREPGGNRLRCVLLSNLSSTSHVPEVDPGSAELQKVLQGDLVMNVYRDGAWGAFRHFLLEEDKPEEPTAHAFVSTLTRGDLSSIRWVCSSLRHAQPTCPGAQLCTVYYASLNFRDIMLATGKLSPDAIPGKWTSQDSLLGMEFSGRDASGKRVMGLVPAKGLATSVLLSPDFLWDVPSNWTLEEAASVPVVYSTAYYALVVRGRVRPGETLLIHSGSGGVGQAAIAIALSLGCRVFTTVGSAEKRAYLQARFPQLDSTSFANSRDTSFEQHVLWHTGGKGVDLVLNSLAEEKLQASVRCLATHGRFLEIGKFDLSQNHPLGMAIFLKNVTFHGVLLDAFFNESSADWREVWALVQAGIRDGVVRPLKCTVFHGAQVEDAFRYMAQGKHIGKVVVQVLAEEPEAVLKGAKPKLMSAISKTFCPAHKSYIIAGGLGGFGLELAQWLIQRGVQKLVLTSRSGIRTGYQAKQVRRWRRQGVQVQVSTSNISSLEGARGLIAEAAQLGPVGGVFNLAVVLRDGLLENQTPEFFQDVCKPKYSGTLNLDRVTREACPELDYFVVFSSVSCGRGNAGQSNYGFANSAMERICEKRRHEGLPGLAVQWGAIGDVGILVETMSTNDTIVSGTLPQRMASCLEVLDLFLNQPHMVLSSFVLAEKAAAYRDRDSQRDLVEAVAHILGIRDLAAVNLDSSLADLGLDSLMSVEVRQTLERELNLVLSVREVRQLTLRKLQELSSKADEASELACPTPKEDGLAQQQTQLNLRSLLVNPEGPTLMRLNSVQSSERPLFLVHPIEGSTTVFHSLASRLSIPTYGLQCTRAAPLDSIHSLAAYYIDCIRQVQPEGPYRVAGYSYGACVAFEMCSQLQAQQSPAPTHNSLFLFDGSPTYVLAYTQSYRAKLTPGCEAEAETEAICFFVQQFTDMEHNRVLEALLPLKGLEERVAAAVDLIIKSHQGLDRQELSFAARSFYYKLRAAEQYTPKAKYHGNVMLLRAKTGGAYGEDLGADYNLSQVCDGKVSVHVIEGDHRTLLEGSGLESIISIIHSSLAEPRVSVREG
# Fatty acid synthase [9] = target: T5, Fatty acid synthase; test: FAS thioesterase domain inhibitors, dose response, biochemical, kinetic fluorescence intensity (AID 624326); format: functional;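 note: rate of fluorescence rise from hydrolysis of a fluorogenic O-methyl fluorescein ester substrate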
# [10] = target: T6, Replicative DNA helicase DnaB (Mycobacterium tuberculosis, UniProt P9WMR3); test: DnaB intein splicing inhibitors, dose response, biochemical, cell-free fluorescence (AID 449749); format: functional
# T6 sequence (P9WMR3 whole entry): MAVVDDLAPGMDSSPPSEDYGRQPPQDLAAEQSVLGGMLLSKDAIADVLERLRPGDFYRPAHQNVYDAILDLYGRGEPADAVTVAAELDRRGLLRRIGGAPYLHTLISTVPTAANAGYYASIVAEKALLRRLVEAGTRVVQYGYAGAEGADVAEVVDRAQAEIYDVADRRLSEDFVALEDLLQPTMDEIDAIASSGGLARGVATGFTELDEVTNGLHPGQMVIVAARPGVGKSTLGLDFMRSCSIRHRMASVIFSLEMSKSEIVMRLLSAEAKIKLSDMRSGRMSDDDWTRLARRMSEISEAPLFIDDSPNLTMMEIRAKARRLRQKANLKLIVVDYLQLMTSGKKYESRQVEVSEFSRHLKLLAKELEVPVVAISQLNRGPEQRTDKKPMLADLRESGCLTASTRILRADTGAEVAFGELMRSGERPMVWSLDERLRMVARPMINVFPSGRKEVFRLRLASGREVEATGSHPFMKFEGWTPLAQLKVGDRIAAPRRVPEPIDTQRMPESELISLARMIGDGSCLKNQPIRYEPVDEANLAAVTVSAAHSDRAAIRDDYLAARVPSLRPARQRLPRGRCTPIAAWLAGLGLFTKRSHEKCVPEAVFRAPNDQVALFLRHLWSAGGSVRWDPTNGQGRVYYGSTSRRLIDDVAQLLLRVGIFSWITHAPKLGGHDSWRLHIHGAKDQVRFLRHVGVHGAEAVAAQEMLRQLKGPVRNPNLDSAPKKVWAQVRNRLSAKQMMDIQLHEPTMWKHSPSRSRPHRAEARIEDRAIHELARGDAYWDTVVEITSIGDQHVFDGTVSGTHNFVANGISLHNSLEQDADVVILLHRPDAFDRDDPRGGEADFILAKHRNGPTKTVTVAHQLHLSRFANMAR
# cells = format: functional
smiles,measurement,setting,value
Cc1ccc(C(=O)ONC(=O)c2ccc(Cl)cc2)cc1[N+](=O)[O-],AC50,[1],4.03 µM (active)
CCc1ccc(S(=O)(=O)N(C(=O)c2ccncc2)c2ccc(OC(=O)c3ccncc3)cc2)cc1,AC50,[1],1.03 µM (active)
CC1=CC2OC3CC4OC(=O)C=CC=CC(=O)OCCC(C)C(O)C(=O)OCC2(CC1)C4(C)C31CO1 (stereo not given),AC50,[1],< 0.195 µM (active)
COC(=O)/C=C1/N=C(Nc2nc(C)cc(C)n2)N(c2ccc(C)c(C)c2)C1=O,EC50,[2],> 260 µM (inactive)
CC(/C=N/n1c(S)nnc1-c1cccnc1)=C\c1ccccc1,IC50,Large T antigen,58.1 µM (active)
CCOC(=O)C1CCCN(C(=O)c2sc3nc(C)nc(N(CC)CC)c3c2C)C1 (stereo not given),EC50,[2],> 260 µM (inactive)
CN(C)/C=C/C(=O)/C=C/c1cn(-c2ncc(C(F)(F)F)cc2Cl)c2ccccc12,AC50,[1],2.9 µM (active)
Sc1nnc(-c2ccco2)n1/N=C/c1cccc(Cl)c1Cl,CC50,[3],96.5 µM (active)
same,IC50,[4],95.7 µM (active)
same,AC50,[5],4.84 µM (active)
CC(C)(C)C(=O)NCC12C=CC(O1)C1C(=O)N(c3ccccc3)C(=O)C12 (stereo not given),EC50,[2],> 260 µM (inactive)
same,AC50,[1],8.25 µM (active)
COc1ccc2nc3oc(C(=O)NC4CCN(Cc5ccccc5)CC4)cc3cc2c1,IC50,[6],> 20 µM (inactive)
CC(C)(C)OC(=O)NCCc1nnc(S(=O)(=O)Cc2ccc(Cl)cc2Cl)o1,AC50,[7],3.94 µM (active)
same,EC50,Protein RecA,4.66 µM (active)
same,IC50,Fatty acid synthase [8],4.23 µM (active)
same,IC50,Fatty acid synthase [9],6.42 µM (active)
same,AC50,[10],1.61 µM (active)
same,IC50,cells,30.1 µM (active)
O=Cc1c(NCc2ccco2)nc2ccccn2c1=O,IC50,cells,40.4 µM (active)
